pEC50, pIC50: −log10 of the molar value.
Tests used:
AsPC-1 (K-Ras G12D) = assay: CellTiter-Glo cell viability assay; type: cell-based; settings: Homo sapiens, ASPC1, 120 h, read-out: AsPC-1 Cell Viability assay data IC50, K-Ras G12D, 5-day treatment
Procedure: Determination of Cell Viability in RAS Mutant Cancer Cell Lines
Protocol: CellTiter-Glo® Cell Viability Assay
Note—The following protocol describes a procedure for monitoring cell viability of K-Ras mutant cancer cell lines in response to a compound of the invention. Other RAS isoforms may be employed, though the number of cells to be seeded will vary based on cell line used.
Test compounds (132.5 nL) were directly dispensed into the assay plates containing cells. […] On day 5, assay plates and their contents were equilibrated to room temperature for approximately 30 minutes. […] Luminescence was measured using the PerkinElmer Enspire. Data were normalized by the following: (Sample signal/Avg. DMSO)*100. The data were fit using a four-parameter logistic fit.

NCI-H358 (K-Ras G12C) = assay: CellTiter-Glo cell viability assay, 5-day treatment; type: cell-based; settings: Homo sapiens, NCI-H358, H358, K-Ras G12C; read-out: Additional H358 Cell Viability assay data (K-Ras G12C, IC50)
In short: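 Compounds were dispensed directly onto seeded cells and incubated for 5 days, then plates were equilibrated to room temperature for about 30 minutes before luminescence reading. Signals were expressed as percent of the mean DMSO control and fitted with a four-parameter logistic curve.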

[1] = test system: K-Ras G12C (NCI-H358 cells); assay: Potency assay: pERK (AlphaLISA SureFire or In-Cell Western); type: cell-based; settings: Homo sapiens, NCI-H358; H358 KRAS G12C; read-out: pERK EC50
In short: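 NCI-H358 cells plated overnight, then treated 4 h at 37 °C with 10-point 3-fold DMSO dilutions (10 mM top stock), in duplicate. pERK1/2 read by AlphaLISA SureFire Ultra lysate assay or by In-Cell Western with DRAQ5 DNA stain. IC50 from 4-parameter sigmoidal fit of signal vs log concentration.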

NRAS Q61R = NRAS Q61R (Homo sapiens, UniProt P01111+P62937, Q61R); assay: Disruption of BRAF RBD interaction with Ras (FRET / MOA assay, with Cyclophilin A); type: biochemical; settings: NRAS Q61R; read-out: NRAS Q61R FRET data IC50
In short: (§1)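 TR-FRET in 25 mM HEPES pH 7.3, 100 mM NaCl, 5 mM MgCl2, 0.1% BSA: 25 μM Cyclophilin A, 12.5 nM His6-Ras-GMPPNP, 50 nM GST-BRAF RBD with compound (10-point 3-fold series from 30 μM), 3 h at 25° C. Anti-His Eu/anti-GST APC added, 1.5 h more; IC50 from decreased FRET ratio versus DMSO.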

NRAS Q61K = NRAS Q61K (Homo sapiens, UniProt P01111+P62937, Q61K); assay: as above; type: biochemical; settings: NRAS Q61K; read-out: NRAS Q61K FRET data IC50
In short: as §1

KRAS G12C = KRAS G12C (Homo sapiens, UniProt P01116+P62937, G12C); assay: as above; type: biochemical; settings: KRAS G12C; read-out: KRAS G12C FRET data IC50
In short: (§2)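 TR-FRET readout: a drop in ratio relative to DMSO wells marks disruption of the K-Ras:BRAF RBD complex via compound-induced K-Ras–Cyclophilin A ternary complex. Dosing used ten 3-fold steps from 30 μM final, 3 h at 25 °C, then Eu-anti-His 10 nM plus APC-anti-GST 50 nM for another 1.5 h. Values are IC50s.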

KRAS G12D = KRAS G12D (Homo sapiens, UniProt P01116+P62937, G12D); assay: as above; type: biochemical; settings: read-out: KRAS G12D FRET data, IC50
In short: as §2

NRAS G12C = NRAS G12C (Homo sapiens, UniProt P01111+P62937, G12C); assay: as above; type: biochemical; settings: NRAS G12C; read-out: NRAS G12C FRET data IC50
KRAS G13C = KRAS G13C (Homo sapiens, UniProt P01116+P62937, G13C); assay: as above; type: biochemical; settings: KRAS G13C; read-out: KRAS G13C FRET data IC50
In short: as §2

NRAS Q61R, sequence (P01111 whole entry Q61R): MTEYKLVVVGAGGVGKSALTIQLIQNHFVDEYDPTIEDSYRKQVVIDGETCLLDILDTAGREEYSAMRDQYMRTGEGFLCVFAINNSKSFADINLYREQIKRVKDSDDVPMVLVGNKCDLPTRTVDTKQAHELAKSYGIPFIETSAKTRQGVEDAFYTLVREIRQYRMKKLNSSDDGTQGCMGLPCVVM
NRAS Q61R, sequence (P62937 whole entry): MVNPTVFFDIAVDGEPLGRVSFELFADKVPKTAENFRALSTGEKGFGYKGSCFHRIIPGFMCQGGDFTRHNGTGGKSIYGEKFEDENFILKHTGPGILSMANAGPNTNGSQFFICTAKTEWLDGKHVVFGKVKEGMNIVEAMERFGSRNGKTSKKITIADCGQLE
NRAS G12C, sequence (P01111 whole entry G12C): as the sequence (P01111 whole entry Q61R) above, with G12C, R61Q counted along it
NRAS G12C, sequence (P62937 whole entry): as the sequence (P62937 whole entry) above
NRAS Q61K, sequence (P01111 whole entry Q61K): as the sequence (P01111 whole entry Q61R) above, with R61K counted along it
NRAS Q61K, sequence (P62937 whole entry): as the sequence (P62937 whole entry) above
KRAS G12D, sequence (P01116 1-169 isoform P01116-2 G12D limits assumed): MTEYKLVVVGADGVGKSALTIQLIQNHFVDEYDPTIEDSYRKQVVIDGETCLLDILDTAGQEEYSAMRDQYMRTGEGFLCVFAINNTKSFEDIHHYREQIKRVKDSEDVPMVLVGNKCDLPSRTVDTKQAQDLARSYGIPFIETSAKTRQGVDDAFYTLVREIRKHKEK
KRAS G12D, sequence (P62937 whole entry): as the sequence (P62937 whole entry) above
KRAS G12C, sequence (P01116 1-169 isoform P01116-2 G12C): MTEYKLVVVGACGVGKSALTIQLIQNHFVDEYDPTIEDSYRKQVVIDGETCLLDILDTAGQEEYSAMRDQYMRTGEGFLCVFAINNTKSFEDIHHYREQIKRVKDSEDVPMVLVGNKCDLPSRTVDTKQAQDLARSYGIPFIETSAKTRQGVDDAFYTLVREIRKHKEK
KRAS G12C, sequence (P62937 whole entry): as the sequence (P62937 whole entry) above
KRAS G13C, sequence (P01116 1-169 isoform P01116-2 G13C): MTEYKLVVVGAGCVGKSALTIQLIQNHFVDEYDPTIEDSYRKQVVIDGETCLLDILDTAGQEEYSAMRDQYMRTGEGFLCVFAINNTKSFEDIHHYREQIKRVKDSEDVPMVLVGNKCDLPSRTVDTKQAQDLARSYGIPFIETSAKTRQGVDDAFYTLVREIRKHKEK
KRAS G13C, sequence (P62937 whole entry): as the sequence (P62937 whole entry) above

Row | Structure (SMILES) | pIC50 (AsPC-1 (K-Ras G12D)) | pIC50 (NCI-H358 (K-Ras G12C)) | pEC50 [1] | pIC50 (NRAS Q61R) | pIC50 (NRAS Q61K) | pIC50 (KRAS G12C) | pIC50 (KRAS G12D) | pIC50 (NRAS G12C) | pIC50 (KRAS G13C)
1 | CCn1c(-c2cnccc2COC)c2c3cc(ccc31)-c1cc(O)cc(c1)C[C@H](NC(=O)[C@H](C(C)C)N(C)C(=O)CN(C)C(=O)[C@H]1N[C@H]1c1ccccc1)C(=O)N1CCC[C@H](N1)C(=O)OCC(C)(C)C2 [Example 116] | < 5.00 |  |  |  |  |  |  |  | 
2 | CCn1c(-c2cccnc2[C@H](C)OC)c2c3cc(ccc31)N1CCC[C@@H](C[C@H](NC(=O)[C@H](C(C)C)N(C)C(=O)C3(F)CCN(C(=O)C#CC(C)(C)N(C)C)CC3)C(=O)N3CCCC(N3)C(=O)OCC(C)(C)C2)C1 [Example A616] |  | > 8.00 | > 5.30 | < 5.00 | < 5.00 | 7.00 to 8.00 | < 5.00 | > 8.00 | 
3 | CCn1c(-c2cccnc2[C@H](C)OC)c2c3cc(ccc31)-c1cccc(n1)C[C@H](NC(=O)[C@H](C(C)C)N(C)C(=O)N1CCC13CN(C(=O)C#CC(C)(C)N(C)C)C3)C(=O)N1CCCC(N1)C(=O)OCC(C)(C)C2 (some centres unmarked) [Example A623] |  | 7.00 to 8.00 | > 5.30 | 5.00 to 6.00 | 6.00 to 7.00 |  |  | 6.00 to 7.00 | 
4 | CCn1c(-c2cccnc2[C@H](C)OC)c2c3cc(ccc31)-c1csc(n1)C[C@H](NC(=O)[C@H](C(C)C)N(C)C(=O)N1C[C@@H]3CN(C(=O)C#CC(C)(C)N(C)C)CC[C@@H]31)C(=O)N1CCCC(N1)C(=O)OCC(C)(C)C2 (some centres unmarked) [Example A625] |  | 7.00 to 8.00 | > 5.30 | 6.00 to 7.00 | 6.00 to 7.00 |  |  | 6.00 to 7.00 | 
5 | CCn1c(-c2cccnc2[C@H](C)OC)c2c3cc(ccc31)-c1csc(n1)C[C@H](NC(=O)[C@@H](F)COC1CN(C(=O)C#CC(C)(C)N(C)C)C1)C(=O)N1CCCC(N1)C(=O)OCC(C)(C)C2 (some centres unmarked) [Example A626] |  | 7.00 to 8.00 | > 5.30 | 5.00 to 6.00 | 5.00 to 6.00 |  |  | > 8.00 | 
6 | CCn1c(-c2cccnc2[C@H](C)OC)c2c3cc(ccc31)-c1csc(n1)C[C@H](NC(=O)[C@H](F)COC1CN(C(=O)C#CC(C)(C)N(C)C)C1)C(=O)N1CCCC(N1)C(=O)OCC(C)(C)C2 (some centres unmarked) [Example A627] |  | > 8.00 | > 5.30 | < 5.00 | < 5.00 |  |  | > 8.00 | 
7 | CO[C@@H](C)c1ncccc1-c1c2c3cc(ccc3n1CC(F)(F)F)N1CCO[C@@H](C[C@H](NC(=O)[C@H](C(C)C)N3CC[C@@]4(CCN(C(=O)C#CC(C)(C)N(C)C)C4)C3=O)C(=O)N3CCCC(N3)C(=O)OCC(C)(C)C2)C1 [Example A628] |  | 7.00 to 8.00 | > 5.30 | < 5.00 | < 5.00 |  |  | > 8.00 | 
8 | C=CC(=O)N(C)CC1CCN(C(=O)N(C)[C@H](C(=O)N[C@H]2Cc3nc(cs3)-c3ccc4c(c3)c(c(-c3cccnc3[C@H](C)OC)n4CC)CC(C)(C)COC(=O)C3CCCN(N3)C2=O)C(C)C)CC1 (some centres unmarked) [Example A629] |  | > 8.00 | > 5.30 | 7.00 to 8.00 | 7.00 to 8.00 |  | 6.00 to 7.00 | 7.00 to 8.00 | 7.00 to 8.00
9 | C=CC(=O)N(C)[C@H]1CN(C(=O)N(C)[C@H](C(=O)N[C@H]2Cc3nc(cs3)-c3ccc4c(c3)c(c(-c3cccnc3[C@H](C)OC)n4CC)CC(C)(C)COC(=O)C3CCCN(N3)C2=O)C(C)C)C[C@H]1F (some centres unmarked) [Example A631] |  | > 8.00 | > 5.30 | 6.00 to 7.00 | 7.00 to 8.00 |  |  | 7.00 to 8.00 | 
10 | C=CC(=O)N(C)[C@H]1CN(C(=O)N(C)[C@H](C(=O)N[C@H]2Cc3nc(cs3)-c3ccc4c(c3)c(c(-c3cccnc3[C@H](C)OC)n4CC)CC(C)(C)COC(=O)C3CCCN(N3)C2=O)C(C)C)C[C@@H]1F (some centres unmarked) [Example A632] |  | 6.00 to 7.00 | > 5.30 | 6.00 to 7.00 | 6.00 to 7.00 |  |  | 7.00 to 8.00 | 
11 | C=CC(=O)N1CCCC2(CCN(C(=O)N(C)[C@H](C(=O)N[C@H]3Cc4nc(cs4)-c4ccc5c(c4)c(c(-c4cccnc4[C@H](C)OC)n5CC)CC(C)(C)COC(=O)C4CCCN(N4)C3=O)C(C)C)CC2)C1 (some centres unmarked) [Example A635] |  | 6.00 to 7.00 | > 5.30 | 6.00 to 7.00 | 6.00 to 7.00 |  |  | 6.00 to 7.00 | 
12 | C=CC(=O)N1CC2(CCN2C(=O)N(C)[C@H](C(=O)N[C@H]2Cc3cccc(n3)-c3ccc4c(c3)c(c(-c3cccnc3[C@H](C)OC)n4CC)CC(C)(C)COC(=O)C3CCCN(N3)C2=O)C(C)C)C1 (some centres unmarked) [Example A636] |  | > 8.00 | > 5.30 | 6.00 to 7.00 | 6.00 to 7.00 |  |  | 7.00 to 8.00 | 
13 | C=CC(=O)N1CC[C@H](C(=O)N(C)[C@@H](CC(F)(F)F)C(=O)N[C@H]2Cc3cccc(c3)-c3ccc4c(c3)c(c(-c3cccnc3[C@H](C)OC)n4CC)CC(C)(C)COC(=O)C3CCCN(N3)C2=O)C1 (some centres unmarked) [Example A639] |  | 6.00 to 7.00 | > 5.30 | 5.00 to 6.00 | 5.00 to 6.00 |  |  | 6.00 to 7.00 | 
14 | C=CC(=O)N1CC[C@H](C(=O)N(C)[C@H](C(=O)N[C@H]2Cc3cccc(c3)-c3ccc4c(c3)c(c(-c3cccnc3[C@H](C)OC)n4CC)CC(C)(C)COC(=O)C3CCCN(N3)C2=O)[C@@H](C)C(F)(F)F)C1 (some centres unmarked) [Example A640] |  | 7.00 to 8.00 | > 5.30 | 5.00 to 6.00 | 5.00 to 6.00 |  |  | 6.00 to 7.00 | 
15 | C=CC(=O)N1CC[C@H](C(=O)N(C)[C@H](C(=O)N[C@H]2Cc3cccc(c3)-c3ccc4c(c3)c(c(-c3cccnc3[C@H](C)OC)n4CC)CC(C)(C)COC(=O)C3CCCN(N3)C2=O)[C@H](C)C(F)(F)F)C1 (some centres unmarked) [Example A641] |  | 7.00 to 8.00 | > 5.30 | 5.00 to 6.00 | 5.00 to 6.00 |  |  | 6.00 to 7.00 | 
16 | C=CC(=O)N1CC2[C@@H](C1)CN2C(=O)N(C)[C@H](C(=O)N[C@H]1Cc2nc(cs2)-c2ccc3c(c2)c(c(-c2cccnc2[C@H](C)OC)n3CC)CC(C)(C)COC(=O)[C@@H]2CCCN(N2)C1=O)C(C)C (some centres unmarked) [Example A686] |  | > 8.00 | > 5.30 | 6.00 to 7.00 | 7.00 to 8.00 |  |  | 7.00 to 8.00 | 
